Source: ChEMBL document CHEMBL4000252, “Discovery of N-(2-aminoethyl)-N-benzyloxyphenyl benzamides: New potent Trypanosoma brucei inhibitors” (Bioorg Med Chem, 2017)
Calls of active or inactive are those of the source. The rule behind the calls is not given here.

Assays:
[1] = system: Trypanosoma brucei brucei; assay: Antiparasitic activity against Trypanosoma brucei brucei BF427 assessed as growth inhibition after 48 hrs by Alamar blue assay; type: functional; conditions: BF427, 48 h
[2] = Cytotoxicity against human CRL8155 cells assessed as growth inhibition after 48 hrs by Alamar blue assay; type: cell-based; conditions: crl8155, 48 h
HepG2 = assay: Cytotoxicity against human HepG2 cells assessed as growth inhibition after 48 hrs by Alamar blue assay; type: cell-based; conditions: hepg2, 48 h
Cytochrome P450 3A4 = Cytochrome P450 3A4 (Homo sapiens, UniProt P08684); assay: Inhibition of human CYP3A4; type: ADME
Chain of Cytochrome P450 3A4 (P08684 whole entry): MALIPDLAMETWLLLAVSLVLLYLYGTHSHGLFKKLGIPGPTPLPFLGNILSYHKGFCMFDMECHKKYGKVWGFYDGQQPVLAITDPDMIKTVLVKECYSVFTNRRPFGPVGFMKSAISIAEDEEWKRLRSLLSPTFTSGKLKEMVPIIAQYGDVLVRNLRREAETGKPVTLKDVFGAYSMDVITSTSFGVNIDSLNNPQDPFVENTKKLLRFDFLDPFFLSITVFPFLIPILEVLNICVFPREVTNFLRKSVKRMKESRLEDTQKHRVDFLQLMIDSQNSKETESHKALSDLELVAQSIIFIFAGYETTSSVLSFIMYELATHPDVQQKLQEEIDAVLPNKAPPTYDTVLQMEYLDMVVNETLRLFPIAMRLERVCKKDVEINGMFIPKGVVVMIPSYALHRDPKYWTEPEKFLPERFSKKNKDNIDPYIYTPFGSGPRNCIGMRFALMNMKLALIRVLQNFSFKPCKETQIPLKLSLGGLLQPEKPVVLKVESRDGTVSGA

Liver [3] = assay: Half life in human liver microsomes at 1.5 uM by LC-MS analysis; type: ADME, microsome
[4] = Ratio of drug level in brain to plasma in mouse at 5 mg/kg, ip after 1 hr by LC-MS analysis; type: ADME, organism-based
[5] = Cmax in mouse at 50 mg/kg, po by LC-MS analysis; type: ADME, organism-based; design: dose 50 mg/kg, route oral; conditions: in vivo
[6] = AUC (0 to 8 hrs) in mouse at 50 mg/kg, po by LC-MS analysis; type: ADME, organism-based; design: dose 50 mg/kg, time < 8 hr, route oral; conditions: in vivo
[7] = system: Trypanosoma brucei rhodesiense; assay: Antiparasitic activity against Trypanosoma brucei rhodesiense STIB900 infected in Swiss-Webster mouse assessed as cure rate at 50 mg/kg, bid administered via oral gavage from day 2 to 5 post infection measured after 60 days by microscopic method relative to control; type: functional
[8] = system: Trypanosoma brucei brucei; assay: Antiparasitic activity against Trypanosoma brucei brucei TREU667 infected in mouse assessed as decrease in parasitemia at 50 mg/kg, bid administered via oral gavage on day 21 to 34 post infection measured on day 34 by microscopic method; type: functional, organism-based
[9] = system: Trypanosoma brucei brucei; assay: Antiparasitic activity against Trypanosoma brucei brucei TREU667 infected in mouse assessed as decrease in parasitemia at 50 mg/kg, bid administered via oral gavage on day 21 to 34 post infection measured on day 41 to 42 by microscopic method; type: functional, organism-based
[10] = system: Trypanosoma brucei brucei; assay: Antiparasitic activity against Trypanosoma brucei brucei TREU667 infected in mouse assessed as decrease in parasitemia at 10 mg/kg, ip administered as single dose on day 21 post infection measured on day 34 by microscopic method; type: functional, organism-based
[11] = system: Trypanosoma brucei brucei; assay: Antiparasitic activity against Trypanosoma brucei brucei TREU667 infected in mouse assessed as decrease in parasitemia at 10 mg/kg, ip administered as single dose on day 21 post infection measured on day 35 by microscopic method; type: functional, organism-based
[12] = system: Trypanosoma brucei brucei; assay: Antiparasitic activity against Trypanosoma brucei brucei TREU667 infected in mouse assessed as decrease in parasitemia at 10 mg/kg, ip administered as single dose on day 21 post infection measured on day 36 by microscopic method; type: functional, organism-based
[13] = system: Trypanosoma brucei brucei; assay: Antiparasitic activity against Trypanosoma brucei brucei TREU667 infected in mouse assessed as decrease in parasitemia at 10 mg/kg, ip administered as single dose on day 21 post infection measured on day 37 by microscopic method; type: functional, organism-based
[14] = system: Trypanosoma brucei brucei; assay: Antiparasitic activity against Trypanosoma brucei brucei TREU667 infected in mouse assessed as decrease in parasitemia at 10 mg/kg, ip administered as single dose on day 21 post infection measured on day 38 by microscopic method; type: functional, organism-based
[15] = system: Trypanosoma brucei brucei; assay: Antiparasitic activity against Trypanosoma brucei brucei TREU667 infected in mouse assessed as decrease in parasitemia at 10 mg/kg, ip administered as single dose on day 21 post infection measured on day 39 by microscopic method; type: functional, organism-based
[16] = system: Trypanosoma brucei brucei; assay: Antiparasitic activity against Trypanosoma brucei brucei TREU667 infected in mouse assessed as decrease in parasitemia at 10 mg/kg, ip administered as single dose on day 21 post infection measured on day 40 by microscopic method; type: functional, organism-based
[17] = system: Trypanosoma brucei brucei; assay: Antiparasitic activity against Trypanosoma brucei brucei TREU667 infected in mouse assessed as decrease in parasitemia at 10 mg/kg, ip administered as single dose on day 21 post infection measured on day 41 to 42 by microscopic method; type: functional, organism-based
[18] = system: Trypanosoma brucei brucei; assay: Antiparasitic activity against Trypanosoma brucei brucei TREU667 infected in mouse assessed as decrease in parasitemia at 10 mg/kg, ip administered as single dose on day 21 post infection measured on day 43 to 45 by microscopic method; type: functional, organism-based
[19] = system: Trypanosoma brucei brucei; assay: Antiparasitic activity against Trypanosoma brucei brucei TREU667 infected in mouse assessed as decrease in parasitemia at 10 mg/kg, ip administered as single dose on day 21 post infection measured on day 50 to 51 by microscopic method; type: functional, organism-based
[20] = system: Trypanosoma brucei brucei; assay: Antiparasitic activity against Trypanosoma brucei brucei TREU667 infected in mouse assessed as decrease in parasite levels in peripheries at 10 mg/kg, ip administered as single dose on day 21 post infection by microscopic method; type: functional, organism-based
[21] = system: Trypanosoma brucei brucei; assay: Antiparasitic activity against Trypanosoma brucei brucei TREU667 infected in mouse assessed as decrease in parasite levels in brain at 10 mg/kg, ip administered as single dose on day 21 post infection by microscopic method; type: functional, organism-based
L6 = assay: Cytotoxicity against rat L6 cells assessed as growth inhibition after 48 hrs by Alamar blue assay; type: cell-based; conditions: l6, 48 h
[22] = system: Trypanosoma brucei brucei; assay: Antiparasitic activity against Trypanosoma brucei brucei TREU667 infected in mouse assessed as decrease in parasitemia at 50 mg/kg, bid administered via oral gavage on day 21 to 34 post infection measured on day 35 by microscopic method; type: functional, organism-based
[23] = system: Trypanosoma brucei brucei; assay: Antiparasitic activity against Trypanosoma brucei brucei TREU667 infected in mouse assessed as decrease in parasitemia at 50 mg/kg, bid administered via oral gavage on day 21 to 34 post infection measured on day 36 by microscopic method; type: functional, organism-based
[24] = system: Trypanosoma brucei brucei; assay: Antiparasitic activity against Trypanosoma brucei brucei TREU667 infected in mouse assessed as decrease in parasitemia at 50 mg/kg, bid administered via oral gavage on day 21 to 34 post infection measured on day 46 to 49 by microscopic method; type: functional, organism-based
[25] = system: Trypanosoma brucei brucei; assay: Antiparasitic activity against Trypanosoma brucei brucei TREU667 infected in mouse assessed as decrease in parasitemia at 50 mg/kg, bid administered via oral gavage on day 21 to 34 post infection measured on day 40 by microscopic method; type: functional, organism-based
[26] = system: Trypanosoma brucei brucei; assay: Antiparasitic activity against Trypanosoma brucei brucei TREU667 infected in mouse assessed as decrease in parasitemia at 50 mg/kg, bid administered via oral gavage on day 21 to 34 post infection measured on day 37 by microscopic method; type: functional, organism-based
[27] = system: Trypanosoma brucei brucei; assay: Antiparasitic activity against Trypanosoma brucei brucei TREU667 infected in mouse assessed as decrease in parasitemia at 50 mg/kg, bid administered via oral gavage on day 21 to 34 post infection measured on day 38 by microscopic method; type: functional, organism-based
[28] = system: Trypanosoma brucei brucei; assay: Antiparasitic activity against Trypanosoma brucei brucei TREU667 infected in mouse assessed as decrease in parasitemia at 50 mg/kg, bid administered via oral gavage on day 21 to 34 post infection measured on day 39 by microscopic method; type: functional, organism-based
[29] = system: Trypanosoma brucei brucei; assay: Antiparasitic activity against Trypanosoma brucei brucei TREU667 infected in mouse assessed as decrease in parasitemia at 50 mg/kg, bid administered via oral gavage on day 21 to 34 post infection measured on day 43 to 45 by microscopic method; type: functional, organism-based
[30] = system: Trypanosoma brucei brucei; assay: Antiparasitic activity against Trypanosoma brucei brucei TREU667 infected in mouse assessed as decrease in parasitemia at 50 mg/kg, bid administered via oral gavage on day 21 to 34 post infection measured on day 50 to 51 by microscopic method; type: functional, organism-based
[31] = system: Trypanosoma brucei brucei; assay: Antiparasitic activity against Trypanosoma brucei brucei TREU667 infected in mouse assessed as decrease in parasitemia at 50 mg/kg, bid administered via oral gavage on day 21 to 34 post infection measured on day 52 to 180 by microscopic method; type: functional, organism-based
[32] = system: Trypanosoma brucei rhodesiense; assay: Antiparasitic activity against Trypanosoma brucei rhodesiense STIB900 assessed as growth inhibition after 48 hrs by Alamar blue assay; type: functional; conditions: STIB900, 48 h
Liver [33] = assay: Half life in mouse liver microsomes at 1.5 uM by LC-MS analysis; type: ADME, microsome
[34] = system: Trypanosoma brucei brucei; assay: Antiparasitic activity against Trypanosoma brucei brucei BF427 assessed as growth inhibition at 32 times EC50 pretreated for 24 hrs followed by compound washout measured after 10 days by light microscopic method; type: functional
[35] = system: Trypanosoma brucei brucei; assay: Antiparasitic activity against Trypanosoma brucei brucei BF427 assessed as growth inhibition at 16 times EC50 pretreated for 48 hrs followed by compound washout measured after 10 days by light microscopic method; type: functional
[36] = system: Trypanosoma brucei brucei; assay: Antiparasitic activity against Trypanosoma brucei brucei BF427 assessed as growth inhibition at 16 times EC50 pretreated for 72 hrs followed by compound washout measured after 10 days by light microscopic method; type: functional
[37] = system: Trypanosoma brucei brucei; assay: Antiparasitic activity against Trypanosoma brucei brucei BF427 assessed as growth inhibition at 16 times EC50 pretreated for 96 hrs followed by compound washout measured after 10 days by light microscopic method; type: functional
[38] = system: Trypanosoma brucei brucei; assay: Antiparasitic activity against Trypanosoma brucei brucei BF427 assessed as growth inhibition at 4 times EC50 pretreated for 24 hrs followed by compound washout measured after 10 days by light microscopic method; type: functional
[39] = system: Trypanosoma brucei brucei; assay: Antiparasitic activity against Trypanosoma brucei brucei BF427 assessed as growth inhibition at 4 times EC50 pretreated for 48 hrs followed by compound washout measured after 10 days by light microscopic method; type: functional
[40] = system: Trypanosoma brucei brucei; assay: Antiparasitic activity against Trypanosoma brucei brucei BF427 assessed as growth inhibition at EC50 pretreated for 72 hrs followed by compound washout measured after 10 days by light microscopic method; type: functional
[41] = system: Trypanosoma brucei brucei; assay: Antiparasitic activity against Trypanosoma brucei brucei BF427 assessed as growth inhibition at EC50 pretreated for 96 hrs followed by compound washout measured after 10 days by light microscopic method; type: functional
[42] = system: Trypanosoma brucei brucei; assay: Antiparasitic activity against Trypanosoma brucei brucei BF427 assessed as growth inhibition at 64 times EC50 pretreated for 48 hrs followed by compound washout measured after 10 days by light microscopic method; type: functional
[43] = system: Trypanosoma brucei brucei; assay: Antiparasitic activity against Trypanosoma brucei brucei BF427 assessed as growth inhibition at 64 times EC50 pretreated for 72 hrs followed by compound washout measured after 10 days by light microscopic method; type: functional

SMILES | EC50 [1] [µM] | CC50 [2] [µM] | CC50 (HepG2) [µM] | IC50 (Cytochrome P450 3A4) [µM] | t1/2 (Liver [3]) [h] | BPR [4] | Cmax [5] [µM] | AUC(0-t) at 8 h [6] [µM·h] | Activity [7] | Activity [8] | CC50 (L6) [µM] | other results
Cc1cc(C)cc(COc2ccc(N(CCN)C(=O)c3ccc(Cl)cc3Cl)cc2)c1.Cl | 0.02 | 2.45 | 4.1 | 0.003 | > 1 | 0.18 | 5.9 | 33.9 | 33% | Active | – | Activity [9]: inactive
N=C(N)c1ccc(/N=N/Nc2ccc(C(=N)N)cc2)cc1 | – | – | – | – | – | – | – | – | – | – | – | Activity [10]: Active; Activity [11]: Active; Activity [12]: Active; Activity [13]: Active; Activity [14]: Active; Activity [15]: Active; Activity [16]: Active; Activity [17]: Active; Activity [18]: Active; Activity [19]: inactive; Activity [20]: Active; Activity [21]: inactive
NCCN(C(=O)c1ccccc1F)c1ccc(Cl)cc1 | 3.9 | – | – | – | – | – | – | – | – | – | 104 | –
CC1(C)OB(O)c2cc(NC(=O)c3ccc(F)cc3C(F)(F)F)ccc21 | – | – | – | – | – | – | – | – | – | Active | – | Activity [22]: Active; Activity [23]: Active; Activity [24]: Active; Activity [9]: Active; Activity [25]: Active; Activity [26]: Active; Activity [27]: Active; Activity [28]: Active; Activity [29]: Active; Activity [30]: Active; Activity [31]: Active
Cl.NCCN(C(=O)c1ccc(Cl)cc1Cl)c1ccc(OCc2ccc(Cl)cc2)cc1 | 0.031 | 2 | 2 | 0.179 | > 1 | 0.42 | 0.53 | 3.42 | 67 - 80% | – | – | EC50 [32]: 0.005 µM; t1/2 (Liver [33]): 0.583 h; growth inhibition (GI) [34]: Active; growth inhibition (GI) [35]: Active; growth inhibition (GI) [36]: Active; growth inhibition (GI) [37]: Active
COc1ccc(N(CCN)C(=O)c2ccc(Cl)cc2Cl)cc1 | > 6 | – | – | – | – | – | – | – | – | – | 56.1 | –
Cl.NCCN(C(=O)c1ccc(F)cc1C(F)(F)F)c1ccc(OCc2ccc(Cl)cc2)cc1 | 0.007 | 3.67 | 7.53 | 0.01 | > 1 | 0.38 | 4.39 | 26 | 67 - 80% | Active | – | t1/2 (Liver [33]): > 1 h; Activity [22]: Active; Activity [23]: Active; Activity [24]: inactive
NCCN(C(=O)c1ccc(Cl)cc1Cl)c1ccc(C(F)(F)F)cc1 | 1.05 | – | – | – | – | – | – | – | – | – | 13.2 | –
N=C(N)c1ccc(OCCCCCOc2ccc(C(=N)N)cc2)cc1 | – | – | – | – | – | – | – | – | – | – | – | growth inhibition (GI) [38]: Active; growth inhibition (GI) [39]: Active; growth inhibition (GI) [40]: Active; growth inhibition (GI) [41]: Active
Cc1cc(C)cc(COc2ccc(N(CCN)C(=O)c3cccnc3Cl)cc2)c1.Cl.Cl | 0.015 | 5.12 | 8.38 | – | 0.65 | 0.06 | 2.07 | 10.9 | 67 - 80% | – | – | growth inhibition (GI) [34]: Active; growth inhibition (GI) [42]: Active; growth inhibition (GI) [43]: Active; growth inhibition (GI) [37]: Active
